Test results: ChEMBL document CHEMBL1158882, “Yardenone A and B: new cytotoxic triterpenes from the Indian Ocean sponge Axinella cf. bidderi” (J Nat Prod, 2003)
Activity calls are given as the source filed them. The rule behind the calls is not given here.

Assays:
Homo sapiens = organism: Homo sapiens; assay: (§1) Cytotoxicity against human NSCLC-N6-L16 cells; assay type: functional, cell-based
[1] = as §1; assay type: functional, cell-based

| Structure (SMILES) | Activity (Homo sapiens) | IC50 [1] [µM] |
| --- | --- | --- |
| C[C@H]1CC[C@@H]2OC(C)(C)C(=O)CC[C@@]2(C)[C@]12CC[C@@H]([C@@]1(C)CC[C@@H]3OC(C)(C)C(=O)CC[C@]31C)O2 | inactive | – |
| CC1=C(CC[C@H]2[C@]3(C)CCC(=O)C(C)(C)O[C@H]3CC[C@]2(C)O)[C@@]2(C)CCC(=O)C(C)(C)C2=C(O)C1=O [SODWANONE A] | – | 12 |
| C[C@H]1CC[C@@H]2OC(C)(C)C(=O)CC[C@@]2(C)[C@]12C[C@H](O)[C@@H]([C@@]1(C)CC[C@@H]3OC(C)(C)C(=O)CC[C@]31C)O2 [YARDENONE A] | – | > 60 |
| C[C@H]1CC[C@@H]2OC(C)(C)[C@H](O)CC[C@@]2(C)[C@]12C[C@H](O)[C@@H]([C@@]1(C)CC[C@@H]3OC(C)(C)C(=O)CC[C@]31C)O2 [YARDENONE B] | – | > 31 |
